This is an account of results in publication PMC9000482, “Inhibition of Aldose Reductase by Ginsenoside Derivatives via a Specific Structure Activity Relationship with Kinetics Mechanism and Molecular Docking Study” (Molecules, 2022).

Test [1] has as its target T1, rat lens aldose reductase (RLAR) (Rattus norvegicus, UniProt P07943).
T1 construct: from tissue; host or cells: lens of Sprague-Dawley rats (supernatant of homogenate)
In words: Enzyme kinetics of RLAR inhibition (Lineweaver-Burk and Dixon plots). The format is biochemical. The conditions noted are these: for RLAR Mode of Inhibition: Lineweaver-Burk plot. The procedure: (§1) Enzyme inhibition with different concentrations ([…]) was assessed by monitoring the effects of different concentrations of the substrate. The following concentrations of test ginsenosides were used in the RLAR kinetics analysis: 0, 2, 10, and 50 µM for protopanaxadiol; 0, 0.5, 2.5, and 10 µM for (20S) ginsenoside Rg3; 0, 0.5, 2.5, and 10 µM for (20R) ginsenoside Rg3; 0, 0.1, 0.5, and 2.5 µM for ginsenoside Rh2; 0, 2, 10, and 50 µM for protopanaxatriol; 0, 0.8, 4, and 20 µM for ginsenoside Rf; 0, 0.8, 4, and 20 µM for (20S) ginsenoside Rg2, and 0, 0.5, 2.5, and 10 µM for ginsenoside Rh1. Using Lineweaver-Burk double reciprocal plots, the inhibition type was determined using various concentrations of DL-glyceraldehyde (5, 10, and 20 mM) for HRAR as a substrate in the presence of different concentrations of the active test ginsenosides. The concentrations of test ginsenosides in the HRAR kinetics analysis were as follows: 0, 0.1, 0.5, and 2.5 µM for protopanaxadiol; 0, 0.5, 2, and 10 µM for (20S) ginsenoside Rg3; 0, 1, 5, and 20 µM for (20R) ginsenoside Rg3; 0, 0.5, 2.5, and 10 µM for ginsenoside Rh2; 0, 0.1, 0.5, and 2.5 µM for compound K; 0, 1, 5, and 10 µM for protopanaxatriol; 0, 0.5, 4, and 20 µM for (20R) ginsenoside Rg2, and 0, 0.2, 2, and 5 µM for ginsenoside Rh1. The Dixon plot is a graphical method [1/enzyme velocity (1/V)] against inhibitor concentration [I] used to determine the type of enzyme inhibition; it was used to identify the dissociation or inhibition constant (Ki) for the enzyme-inhibitor complex. Dixon plots (single reciprocal plots) for RLAR and HRAR inhibition were obtained in the presence of 100, 50, and 10 mM RLAR, and 20, 10, and 5 mM HRAR DL-glyceraldehyde substrate. Thus, the type of enzyme inhibition was determined by interpreting the Lineweaver-Burk plots, and the inhibition constants (Ki) were determined by interpreting the Dixon plots.

Test [2] relates to sorbitol accumulation in rat lens. As to the kind of experiment: Lens culture and intracellular sorbitol measurement (ex vivo). The format is cell-based, Sprague-Dawley rats. The settings on record: 25 mM glucose, 6 days, sample 5 μg/mL, mean ± SD (n = 3).
Test [3] addresses T1, rat lens aldose reductase (RLAR). In words: RLAR inhibitory activity assay (rat lens homogenate, DL-glyceraldehyde substrate). The class given is biochemical. The conditions noted are these: read-out: RLAR IC50; rat lens homogenate; substrate DL-glyceraldehyde; mean ± S.E.M. of triplicate experiments. Here is the method: A rat lens homogenate was prepared with minor modifications according to the method reported by Hayman et al.. Briefly, the lenses were removed from the eyes of Sprague-Dawley rats weighing 250–280 g. They were homogenized in sodium phosphate buffer (pH 6.2) that was prepared with dibasic sodium phosphate (Na2HPO4∙H2O, 0.66 g) and monobasic sodium phosphate (NaH2PO4∙H2O, 1.27 g) in 100 mL of double-distilled H2O. The homogenate was clarified by centrifugation at 10,000 rpm at 4 °C for 20 min and the resultant supernatant was frozen until use. A crude AR homogenate with a specific activity of 6.5 U/mg was used in all enzyme inhibition evaluations. The reaction solution consisted of 620 µL of 100 mM sodium phosphate buffer (pH 6.2), 90 µL of AR homogenate, 90 µL of 1.6 mM NADPH, and 9 µL of sample, while the substrate included 90 µL of 50 mM DL-glyceraldehyde. […] AR activity was determined by measuring the decrease in NADPH absorption at 340 nm over a 4 min period on an Ultrospec®2100pro UV/Visible spectrophotometer. SWIFT II Applications software (Amersham Biosciences, NJ, USA) was used for all data analyses. The inhibition percentage (%) was calculated as follows in Equation (1):[1 − (∆Asample/min − ∆Ablank/min)/(∆Acontrol/min − ∆Ablank/min)] × 100(1) in which ∆Asample/min represents the test sample and substrate’s reduction in absorbance over 4 min, and ∆A control/min represents the same reduction in absorbance, but with 100% DMSO (dimethyl sulfoxide) rather than the test sample.

For test [4], the target named is T2, human recombinant aldose reductase (HRAR) (Homo sapiens, UniProt P15121).
T2 construct: purchased Wako Chemicals (Osaka, Japan)
In words: Enzyme kinetics of HRAR inhibition (Lineweaver-Burk and Dixon plots). The format is biochemical. The procedure: as §1

In test [5] the target is T2, human recombinant aldose reductase (HRAR). In words: HRAR inhibition assay (DL-glyceraldehyde substrate). The format is biochemical. The settings on record: read-out: HRAR IC50; substrate DL-glyceraldehyde; mean ± S.E.M. of triplicate experiments. The procedure: HRAR inhibition was studied according to Nishimura et al.. AR action was studied by measuring the reduction in NADPH absorption at 340 nm over a period of 1 min on a UV/visible spectrophotometer (Ultrospec®2100pro, Biochrom, Holliston, MA, USA). For HRAR inhibition, the HRAR enzyme (0.4 units), was used in all enzyme inhibition evaluations. […] The inhibition percentage (%) was measured as designated in the RLAR assay. The DA sample/min value characterizes the decrease in absorbance for 1 min with the test samples and substrate. The ability of each sample to inhibit HRAR was observed as an IC50 value (µM) and measured from the log-dose inhibition curve.

Marks after values point to notes of the source that are not given here.

In the case of `CC(C)=CCCC(C)(O)C1CCC2(C)C1C(O)CC1C3(C)CCC(OC4OC(CO)C(O)C(O)C4OC4OC(CO)C(O)C(O)C4O)C(C)(C)C3CCC12C` [(20R) ginsenoside Rg3], the results for the “RLAR Mode of Inhibition” value in test [1] and in test [1] (listed as (20R) Rg3) were “Competitive type” and “competitive”, respectively. Besides, the Ki in test [1] (read-out: RLAR Ki, Dixon plots, single inhibition constant) came out at 3.69 µM; in test [4] (read-out: HRAR Kic (binding constant of inhibitor with free enzyme), Dixon plots), 11.1 µM. The “Sorbitol Content (mg)/Lens Wet Weight (g)” value in test [2] is given as 0.89 ± 0.01 ^c mg/g. For the same molecule, testing at 5 µg/mL in test [2] (Rattus norvegicus, 144 h) gave an inhibition of 48.2 ± 3.99%. Further, the values for the half-maximal inhibitory concentration (IC50) in test [3] and in test [5] were 4.28 ± 0.31 µM and 8.67 ± 0.87 µM, respectively. In test [4] (Dixon plots), the “HRAR Kiu (binding constant of inhibitor with enzyme-substrate complex)” value was determined as 17.99 µM. For the same molecule, the “HRAR Mode of Inhibition” value in test [4] (Lineweaver-Burk plot) was “Mixed type”.

One may read the inhibition as the change of the read-out against control, counted positive when it falls. Lower therefore signals little suppression. What is called IC50 is the concentration at which inhibition is half-maximal.
